# Test results as given in PubChem BioAssay (NCI).
#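 These data come from cells grown in 96-well plates and exposed to compound for 48 hours at five concentrations. At the TGI there is no net growth.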
# System: HS 578T breast
# Assay: inhibition of tumour cell growth, NCI panel, 48 h
row,Compound,TGI
1,O=C(N/N=C(\c1ccccc1)c1ccccn1)NC1CCCCC1,> 100 µM
2,C=CCc1cccc2cc(C(=O)NCc3ccccc3)c(=N)oc12,63.8 µM
3,NC(N)=NCCN1CC2CCC(CC2)C1,> 100 µM
4,COc1cc(Nc2nc3ccccc3nc2C(=O)O)cc(OC)c1OC,92 µM
5,COC(=O)c1ccc(/C=C/c2cc(O)ccc2O)cc1,> 100 µM
6,Cc1c(C)c2c(c(N)c1C#N)C(=O)N(NC(=O)c1ccccc1)C2=O,> 100 µM
7,CC(=O)OC(OC(C)=O)c1ccc2ccc3cccc4ccc1c2c34,36.8 µM

# System: MDA-MB-435
# Assay: inhibition of tumour cell growth, NCI panel, 48 h
row,Compound,TGI
1,O=C1C=CC(=O)c2c1ccc1c3ccccc3n(CCCCCn3c4ccccc4c4ccc5c(c43)C(=O)C=CC5=O)c21,46.3 µM
2,Cc1ccc(/C=N/Nc2cc(C)c3cccc(C)c3n2)s1,37.2 µM
3,O=C1C2SC34c5c2c2ccccc2n5CCC3CCCN14 (configuration not stated),> 100 µM
4,CC(=O)N(C(C)=O)c1ncc(-n2nc(-c3ccccc3)cc2-c2ccccc2)c(-c2ccccc2)n1,> 10 µM
5,CC(=O)Nc1sc(Br)cc1S(=O)(=O)c1ccc(Cl)cc1,> 100 µM
6,O=C1Sc2cc3ccccc3cc2C(=O)Sc2ccc(Br)cc21,13.4 µM
7,O=C(/C=C/c1ccccc1)Oc1cccc(O)c1,> 100 µM
8,O=C1c2ccccc2C(=O)c2c(NCC(O)CO)ccc(NCC(O)CO)c21 (configuration not stated),> 100 µM
9,COc1cccc(C(=O)Oc2ccc(OS(=O)(=O)c3ccc(C)cc3)cc2)c1C#N,> 100 µM
10,CC1(C)/C(=N\NC(N)=O)C2CCC1C2 (configuration not stated),> 100 µM
11,C/C=C/C(CC(O)(C(F)(F)F)C(F)(F)F)=N/NC(N)=S,> 10 µM
12,O=C1/C(=C/c2ccc(Br)s2)NC(=S)N1c1ccccc1,> 100 µM
13,Fc1ccc2c(c1)nc1n2C(c2c(Cl)cccc2Cl)SC1 (configuration not stated),25 µM
14,CC(C)C1=CC23CCC4C(C)(C(=O)O)CCCC4(C)C2CC1C1C(=O)N(c2ccc(Cc4ccc(N5C(=O)C6C7CC8C9(C)CCCC(C)(C(=O)O)C9CCC8(C=C7C(C)C)C6C5=O)cc4)cc2)C(=O)C13 (configuration not stated),13.3 µM
15,O=C(Nc1ccccc1)c1cc(S(=O)(=O)NC2=NC(c3ccccc3)c3cc(Cl)ccc3N2)c(SSc2cc(Cl)c(C(=O)Nc3ccccc3)cc2S(=O)(=O)NC2=NC(c3ccccc3)c3cc(Cl)ccc3N2)cc1Cl (configuration not stated),> 100 µM
16,CCOC(=O)Nc1[nH]cc(-c2ccccc2)c1C#N,> 100 µM
17,COc1ccc(C2SC(N)=Nc3c2c(C)nn3C(=O)c2ccncc2)cc1OC (configuration not stated),> 10 µM
18,COC(=O)c1c(O)ccc2c1c1c(n2Cc2cc(OC)cc(OC)c2)C(=O)c2ccccc2C1,61.7 µM
19,O=C1Nc2cccc(Cl)c2/C1=C\c1c(Cl)nc2n1CCS2,> 100 µM
20,O=C(N/N=C(\c1ccccc1)c1ccccn1)NC1CCCCC1,> 100 µM
21,C=CCc1cccc2cc(C(=O)NCc3ccccc3)c(=N)oc12,> 100 µM
22,NC(N)=NCCN1CC2CCC(CC2)C1,> 100 µM
23,COc1cc(Nc2nc3ccccc3nc2C(=O)O)cc(OC)c1OC,> 100 µM
24,COC(=O)c1ccc(/C=C/c2cc(O)ccc2O)cc1,13.5 µM
25,Cc1c(C)c2c(c(N)c1C#N)C(=O)N(NC(=O)c1ccccc1)C2=O,> 100 µM
26,CC(=O)OC(OC(C)=O)c1ccc2ccc3cccc4ccc1c2c34,37.9 µM

# System: M14 melanoma
# Assay: inhibition of tumour cell growth, NCI panel, 48 h
row,Compound,TGI
1,O=C1C=CC(=O)c2c1ccc1c3ccccc3n(CCCCCn3c4ccccc4c4ccc5c(c43)C(=O)C=CC5=O)c21,39.3 µM
2,Cc1ccc(/C=N/Nc2cc(C)c3cccc(C)c3n2)s1,18.2 µM
3,O=C1C2SC34c5c2c2ccccc2n5CCC3CCCN14 (configuration not stated),> 100 µM
4,CC(=O)N(C(C)=O)c1ncc(-n2nc(-c3ccccc3)cc2-c2ccccc2)c(-c2ccccc2)n1,> 10 µM
5,CC(=O)Nc1sc(Br)cc1S(=O)(=O)c1ccc(Cl)cc1,38 µM
6,O=C1Sc2cc3ccccc3cc2C(=O)Sc2ccc(Br)cc21,14.4 µM
7,O=C(/C=C/c1ccccc1)Oc1cccc(O)c1,> 100 µM
8,COc1cccc(C(=O)Oc2ccc(OS(=O)(=O)c3ccc(C)cc3)cc2)c1C#N,> 100 µM
9,CC1(C)/C(=N\NC(N)=O)C2CCC1C2 (configuration not stated),> 100 µM
10,C/C=C/C(CC(O)(C(F)(F)F)C(F)(F)F)=N/NC(N)=S,> 10 µM
11,Fc1ccc2c(c1)nc1n2C(c2c(Cl)cccc2Cl)SC1 (configuration not stated),29.9 µM
12,CC(C)C1=CC23CCC4C(C)(C(=O)O)CCCC4(C)C2CC1C1C(=O)N(c2ccc(Cc4ccc(N5C(=O)C6C7CC8C9(C)CCCC(C)(C(=O)O)C9CCC8(C=C7C(C)C)C6C5=O)cc4)cc2)C(=O)C13 (configuration not stated),22.1 µM
13,O=C(Nc1ccccc1)c1cc(S(=O)(=O)NC2=NC(c3ccccc3)c3cc(Cl)ccc3N2)c(SSc2cc(Cl)c(C(=O)Nc3ccccc3)cc2S(=O)(=O)NC2=NC(c3ccccc3)c3cc(Cl)ccc3N2)cc1Cl (configuration not stated),> 100 µM
14,CCOC(=O)Nc1[nH]cc(-c2ccccc2)c1C#N,> 100 µM
15,COc1ccc(C2SC(N)=Nc3c2c(C)nn3C(=O)c2ccncc2)cc1OC (configuration not stated),> 10 µM
16,COC(=O)c1c(O)ccc2c1c1c(n2Cc2cc(OC)cc(OC)c2)C(=O)c2ccccc2C1,> 100 µM
17,O=C1Nc2cccc(Cl)c2/C1=C\c1c(Cl)nc2n1CCS2,> 100 µM
18,O=C(N/N=C(\c1ccccc1)c1ccccn1)NC1CCCCC1,> 100 µM
19,C=CCc1cccc2cc(C(=O)NCc3ccccc3)c(=N)oc12,> 100 µM
20,NC(N)=NCCN1CC2CCC(CC2)C1,> 100 µM
21,COc1cc(Nc2nc3ccccc3nc2C(=O)O)cc(OC)c1OC,> 100 µM
22,COC(=O)c1ccc(/C=C/c2cc(O)ccc2O)cc1,43 µM
23,Cc1c(C)c2c(c(N)c1C#N)C(=O)N(NC(=O)c1ccccc1)C2=O,> 100 µM
24,CC(=O)OC(OC(C)=O)c1ccc2ccc3cccc4ccc1c2c34,61 µM
